In US12275684B2, “Methods for making and using endoxifen” (Atossa Therapeutics, Inc., priority 2017, dated 2025):
Like-named read-outs stand apart in the source and are kept apart here.

Experiment: Placebo controlled, dose escalation pharmacokinetic study of oral (Z)-Endoxifen capsules (serum endoxifen; incl. accumulation ratios and dose linearity)
Type: in vivo, human
Parameters: Serum concentration, Maximum / Serum concentration, GeoMean / Serum concentration, Mean / Serum concentration, Median / terminal rate constant: unit not given here
Conditions: for Serum concentration, GeoMean / Serum concentration, Maximum / Serum concentration, Mean / Serum concentration, Median / Serum concentration, Minimum: 2 mg (n = 6)
Source text: An objective of the study was to assess the safety and tolerability of oral (Z)-Endoxifen when administered […] orally as a capsule to healthy female volunteers. A secondary objective was to assess the pharmacokinetics of multiple doses of oral (Z)-Endoxifen in the subjects.
Generally, healthy female volunteers aged ≥18 years and ≤65 years were enrolled. 24 participants were enrolled in 3 cohorts and will be administered study drug orally. Three dose levels of orally administered (Z)-Endoxifen were investigated in 3 cohorts. In each cohort participants were randomized to receive an oral (Z)-Endoxifen or placebo in a blinded fashion. Enteric-resistant capsules used in the study were designed as delayed release capsules to resist rupture for at least 30 minutes, but typically, for about 2 hours, under gastric conditions and then open fully in intestinal fluid (DRCaps; Capsugel, a Lonza Company, USA). Enteric-resistant (Swedish Orange size Zero (0); Capsugel, USA) DRCaps capsules manually filled with 1, 2 or 4 mg of (Z)-endoxifen neat in compliance with GMP requirements were used. Placebo capsules contained microcrystalline cellulose an inert common capsule and tablet excipient.
Each cohort enrolled 8 participants, with 6 participants receiving (Z)-Endoxifen 1 mg capsules orally at 1 mg (Cohort 1), 2 mg (Cohort 2) or 4 mg (Cohort 3) doses and 2 participants receiving matching placebo capsules. In Cohort 1 (Dose Level=1 mg) two participants (sentinels) were dosed 24 hours prior to the remaining participants. One sentinel was dosed with (Z)-Endoxifen and the other with placebo. The remaining six participants in Cohort 1 were dosed as no safety concerns were identified in the sentinel participants. The non-sentinel participants in Cohort 1 were admitted to the clinical research facility at least one day later than the sentinels. There were no sentinels in Cohorts 2 and 3.
Participant engagement in this study was for a period of 56 days. These included a 28 day screening period, and a 7 day post treatment period for Pharmacokinetic (PK) sampling. There were two confinement periods, one at the beginning and one at the end of the dosing periods. Participants were confined to the clinical facility on Days-1 through to Day 2 and Days 21 and 22. If participants were to experience any clinically significant adverse events during the study, they would have been required to remain in the clinical facility for further observation at the discretion of the Principal Investigator (PI).
Healthy female volunteers were screened within 28 days prior to commencement of dosing. Participants were admitted to the clinical facility on Day-1 for up to 3 days. The first dose of (Z)-Endoxifen or placebo capsules was administered on Day 1. Following completion of all safety assessments and sampling for PK analyses, participants were discharged from the clinical facility on Day 2. The first dose on Day 1 was followed by a 6-day treatment free period (Days 2-7). Each participant returned to the clinical facility for PK blood draws and safety assessments during the treatment free period on study Days 4 and 6. On Day 8 participants commenced daily administration of (Z)-Endoxifen capsules or placebo capsules for 14 consecutive days (Days 8-21). Participants were supplied with study drug capsules and asked to self administer daily. Participants visited the clinical facility on Days 11, 14 and 17, prior to dose administration, for PK blood draws and safety assessments. On the morning of Day 21 each participant returned to the clinical facility prior to dose administration and were confined to the facility until Day 22 to allow for the collection of PK blood draws and safety assessments. The Day 21 dose was the last administration of study drug. Participants were discharged from the clinical facility on Day 22 and returned for PK blood draws and safety assessments on study Days 24, 26, and 28. […]

CC/C(=C(\c1ccc(O)cc1)c1ccc(OCCNC)cc1)c1ccccc1 [(Z)-Endoxifen, (Z)-4-(1-(4-(2-(methylamino)ethoxy)phenyl)-2-phenylbut-1-enyl) phenol]
concentration at 10 h (1 mg, Day 1 Pre-dose, read-out: Serum concentration, GeoMean): 2.68 nM | concentration at 10 h (1 mg, Day 1 Pre-dose, read-out: Serum concentration, Max): 2.68 nM | concentration at 10 h (1 mg, Day 1 Pre-dose, read-out: Serum concentration, Mean): 2.68 nM | concentration at 10 h (1 mg, Day 1 Pre-dose, read-out: Serum concentration, Median): 2.68 nM | concentration at 10 h (1 mg, Day 1 Pre-dose, read-out: Serum concentration, Min): 2.68 nM | concentration at 10 h (1 mg, Day 8 Pre-dose, read-out: Serum concentration, GeoMean): 2.68 nM | concentration at 10 h (1 mg, Day 8 Pre-dose, read-out: Serum concentration, Max): 2.68 nM | concentration at 10 h (1 mg, Day 8 Pre-dose, read-out: Serum concentration, Mean): 2.68 nM | concentration at 10 h (1 mg, Day 8 Pre-dose, read-out: Serum concentration, Median): 2.68 nM | concentration at 10 h (1 mg, Day 8 Pre-dose, read-out: Serum concentration, Min): 2.68 nM | concentration at 10 h (1 mg, Day 11 Pre-Dose, read-out: Serum concentration, GeoMean): 37.7 nM | concentration at 10 h (1 mg, Day 11 Pre-Dose, read-out: Serum concentration, Max): 45.5 nM | concentration at 10 h (1 mg, Day 11 Pre-Dose, read-out: Serum concentration, Mean): 38.5 nM | concentration at 10 h (1 mg, Day 11 Pre-Dose, read-out: Serum concentration, Median): 42.8 nM | concentration at 10 h (1 mg, Day 11 Pre-Dose, read-out: Serum concentration, Min): 26.8 nM | concentration at 10 h (1 mg, Day 14 Pre-dose, read-out: Serum concentration, GeoMean): 37.6 nM | concentration at 10 h (1 mg, Day 14 Pre-dose, read-out: Serum concentration, Max): 75.0 nM | concentration at 10 h (1 mg, Day 14 Pre-dose, read-out: Serum concentration, Mean): 43.4 nM | concentration at 10 h (1 mg, Day 14 Pre-dose, read-out: Serum concentration, Median): 40.2 nM | concentration at 10 h (1 mg, Day 14 Pre-dose, read-out: Serum concentration, Min): 13.4 nM | concentration at 10 h (1 mg, Day 17 Pre-Dose, read-out: Serum concentration, GeoMean): 38.5 nM | concentration at 10 h (1 mg, Day 17 Pre-Dose, read-out: Serum concentration, Max): 64.2 nM | concentration at 10 h (1 mg, Day 17 Pre-Dose, read-out: Serum concentration, Mean): 43.4 nM | concentration at 10 h (1 mg, Day 17 Pre-Dose, read-out: Serum concentration, Median): 45.5 nM | concentration at 10 h (1 mg, Day 17 Pre-Dose, read-out: Serum concentration, Min): 13.4 nM | Serum concentration, GeoMean (Day 1 Pre-dose): 1.00 | Serum concentration, Maximum (Day 1 Pre-dose): 1.00 | Serum concentration, Mean (Day 1 Pre-dose): 0.17 | Serum concentration, Median (Day 1 Pre-dose): 0.00 | Serum concentration, Minimum (Day 1 Pre-dose): 0.00 | Serum concentration, GeoMean (Day 4 Hr 72): 5.47 | Serum concentration, Maximum (Day 4 Hr 72): 8.00 | Serum concentration, Mean (Day 4 Hr 72): 5.67 | Serum concentration, Median (Day 4 Hr 72): 5.50 | Serum concentration, GeoMean (Day 6 Hr 120): 2.55 | Serum concentration, Maximum (Day 6 Hr 120): 4.00 | Serum concentration, Mean (Day 6 Hr 120): 2.80 | Serum concentration, Median (Day 6 Hr 120): 3.00 | Serum concentration, GeoMean (Day 8 Pre-dose): 1.00 | Serum concentration, Maximum (Day 8 Pre-dose): 1.00 | Serum concentration, Mean (Day 8 Pre-dose): 0.83 | Serum concentration, Median (Day 8 Pre-dose): 1.00 | Serum concentration, GeoMean (Day 11 Pre-Dose): 22.6 | Serum concentration, Maximum (Day 11 Pre-Dose): 28.0 | Serum concentration, Mean (Day 11 Pre-Dose): 22.8 | Serum concentration, Median (Day 11 Pre-Dose): 22.5 | Serum concentration, GeoMean (Day 14 Pre-dose): 28.9 | Serum concentration, Maximum (Day 14 Pre-dose): 37.0 | Serum concentration, Mean (Day 14 Pre-dose): 29.2 | Serum concentration, Median (Day 14 Pre-dose): 28.5 | Serum concentration, GeoMean (Day 17 Pre-Dose): 31.5 | Serum concentration, Maximum (Day 17 Pre-Dose): 47.0 | Serum concentration, Mean (Day 17 Pre-Dose): 32.2 | Serum concentration, Median (Day 17 Pre-Dose): 29.5 | Serum concentration, Maximum (Day 1 hr 0.5): 0.00 | Serum concentration, Mean (Day 1 hr 0.5): 0.00 | Serum concentration, Median (Day 1 hr 0.5): 0.00 | Serum concentration, GeoMean (Day 1 hr 1): 2.35 | Serum concentration, Maximum (Day 1 hr 1): 4.00 | Serum concentration, Mean (Day 1 hr 1): 2.17 | Serum concentration, Median (Day 1 hr 1): 2.50 | Serum concentration, GeoMean (Day 1 hr 2): 9.55 | Serum concentration, Maximum (Day 1 hr 2): 16.0 | Serum concentration, Mean (Day 1 hr 2): 10.2 | Serum concentration, Median (Day 1 hr 2): 10.0 | Serum concentration, GeoMean (Day 1 hr 3): 14.3 | Serum concentration, Maximum (Day 1 hr 3): 17.0 | Serum concentration, Mean (Day 1 hr 3): 14.5 | Serum concentration, Median (Day 1 hr 3): 14.5 | Serum concentration, GeoMean (Day 1 hr 4): 16.6 | Serum concentration, Maximum (Day 1 hr 4): 22.0 | Serum concentration, Mean (Day 1 hr 4): 17.2 | Serum concentration, Median (Day 1 hr 4): 17.5 | Serum concentration, GeoMean (Day 1 hr 5): 16.8 | Serum concentration, Maximum (Day 1 hr 5): 22.0 | Serum concentration, Mean (Day 1 hr 5): 17.2 | Serum concentration, Median (Day 1 hr 5): 17.0 | Serum concentration, GeoMean (Day 1 hr 8): 13.8 | Serum concentration, Maximum (Day 1 hr 8): 19.0 | Serum concentration, Mean (Day 1 hr 8): 14.3 | Serum concentration, Median (Day 1 hr 8): 14.5 | Serum concentration, GeoMean (Day 1 hr 10): 14.2 | Serum concentration, Maximum (Day 1 hr 10): 19.0 | Serum concentration, Mean (Day 1 hr 10): 14.5 | Serum concentration, Median (Day 1 hr 10): 14.5 | Serum concentration, GeoMean (Day 1 hr 12): 14.1 | Serum concentration, Maximum (Day 1 hr 12): 18.0 | Serum concentration, Mean (Day 1 hr 12): 14.2 | Serum concentration, Median (Day 1 hr 12): 14.0 | Serum concentration, Minimum (Day 1 hr 12): 12.0 | Serum concentration, GeoMean (Day 1 hr 24): 10.1 | Serum concentration, Maximum (Day 1 hr 24): 13.0 | Serum concentration, Mean (Day 1 hr 24): 10.3 | Serum concentration, Median (Day 1 hr 24): 10.5 | AUC0-inf, Max (Day 1, 1 mg, N = 5): 739 ng·h/mL | AUC0-inf, Min (Day 1, 1 mg, N = 5): 441 ng·h/mL | AUC24hr, Max (Day 1, 1 mg, N = 5): 183 ng·h/mL | AUC24hr, Min (Day 1, 1 mg, N = 5): 102 ng·h/mL | AUCTlast, Max (Day 1, 1 mg, N = 5): 582 ng·h/mL | AUCTlast, Min (Day 1, 1 mg, N = 5): 367 ng·h/mL | CL/F, GeoMean (Day 1, 1 mg, N = 5): 1.79 L/h | CL/F, Max (Day 1, 1 mg, N = 5): 2.27 L/h | CL/F, Mean (Day 1, 1 mg, N = 5): 1.82 L/h | CL/F, Median (Day 1, 1 mg, N = 5): 1.87 L/h
